# “And” between values parts separate entries of the source, which are not always exact repeats. Equal values may be shown once. Where a name gives a salt, the structure may show the parent alone. Read-outs that look alike come from different tables or passages of the source.
# How the values were obtained:
# [1] = tested on: human leukocytes (basophils); assay: Inhibition of IgE-mediated histamine release from human leukocytes (basophils), Procedure A; format: cell-based; conditions: for IC50: Leukocyte, 1 h, read-out: In Vitro Inhibition of Histamine Release IC50 (μM) Procedure A
# Method: A. Procedure for Determining Inhibition of Histamine Release from Human Leukocytes (Basophils)
# Separation of Leukocytes: A modification of the method of L. Lichtenstein and A. Osler, J. Exp. Med. 120, 507 (1964) is used. Heparinized human blood (80-100 ml) is mixed with 20 ml of saline (0.2%) containing 0.6 gm of dextrose and 1.2 gm of dextran in propylene centrifuge tubes. The mixture is kept at ambient temperature for 60-90 minutes to allow the separation of erythrocytes from the platelet-leukocyte-rich supernate. The supernate is removed and centrifuged for 8 minutes at 110 ×g in cold. The leukocyte pellet is washed twice with Tris buffer and finally suspended in 150-180 ml Tris-ACM buffer at 1-2 ×10^6 cells/ml.
# Reaction Mixture: The reaction is carried out in 12×75 mm plastic tubes at a total volume of 1.23 ml. The reaction medium includes 0.05 ml rabbit anti-human IgE (the antigen), 0.2 ml of the test compound in water at concentrations ranging from 10-100 μM, and 1.0 ml of the leukocyte suspension. The reaction mixture is incubated in a 37° C. shaking water bath for 60 minutes. Upon completion of the reaction, the tubes are centrifuged and the supernatants collected. The protein is removed from the supernatants by precipitation with 0.2 ml of 8% perchloric acid.
# Histamine Assay: Histamine release is measured by the automated fluorometric method of W. Siraganian and W. Hook in Chapter 102 of the Manual of Clinical Immunology, 2nd Edition, edited by R. Rose and H. Friedman, published by the American Society for Microbiology, Washington, D.C., 1980. Percent inhibition is calculated as follows: [formula]
# The concentration which causes a 50 percent inhibition (IC50) of histamine release is interpolated from a plot of percent inhibition versus logarithm of drug concentration.
# [2] = molecular target: T1, histamine (H1) receptor (Cavia porcellus, UniProt P31389); assay: Antagonism of histamine-induced contraction of isolated guinea pig ileum; format: tissue-based; conditions: histamine final concentration 0.2 μg/ml, 50% reduction of contractile response, read-out: Inhibition IC50 (μM) of histamine-induced contraction
# T1 construct: contraction of isolated guinea pig ileum; from tissue; host or cells: isolated guinea pig ileum
# T1 sequence (P31389 whole entry): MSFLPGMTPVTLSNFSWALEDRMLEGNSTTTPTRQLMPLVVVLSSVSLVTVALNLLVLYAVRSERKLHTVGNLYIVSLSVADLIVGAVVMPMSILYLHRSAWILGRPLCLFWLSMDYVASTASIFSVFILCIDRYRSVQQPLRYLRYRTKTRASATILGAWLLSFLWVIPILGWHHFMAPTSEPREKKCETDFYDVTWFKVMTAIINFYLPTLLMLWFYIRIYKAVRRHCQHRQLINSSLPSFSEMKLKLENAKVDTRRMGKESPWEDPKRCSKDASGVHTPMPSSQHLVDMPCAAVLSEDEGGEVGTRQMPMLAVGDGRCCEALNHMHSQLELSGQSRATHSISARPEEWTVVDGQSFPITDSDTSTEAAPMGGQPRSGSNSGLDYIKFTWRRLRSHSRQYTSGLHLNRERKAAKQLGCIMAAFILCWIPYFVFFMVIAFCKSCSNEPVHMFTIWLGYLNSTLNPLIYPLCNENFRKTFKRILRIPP
# From the text: Certain compounds of formula I inhibit in vitro the histamine-induced contraction of isolated guinea pig ileum and are useful in warm-blooded animals for antagonizing the action of histamine at the histamine (H1) receptor. Accordingly, these compounds can be employed in a conventional manner as antihistamine agents for the treatment of allergic disorders, for example allergic rhinitis, vasomotor rhinitis, allergic conjunctivitis, hay fever, urticaria, and food allergies.
# The antagonism of the effects of histamine on the contraction of isolated guinea pig ileum by the compounds of formula I can be determined by the procedure of G. Possanza, A. Bauen, and P. Stewart, Int. Arch. Allergy Appl. Immunol., 49, 289 (1975). The degree of inhibition is determined as the difference between the contraction caused by histamine (final concentration 0.2 μg/ml) alone and that seen in the presence of both histamine and the test compound. The inhibitory activity of the test compound is expressed as that concentration of the compound which causes a 50% reduction of the contractile response (IC50).
# [3] = tested on: rat peritoneal mast cells; assay: Inhibition of histamine release from rat peritoneal mast cells, Procedure B; format: cell-based; conditions: Mast cell, 1 h; from rat peritoneal mast cells; sheep anti-rat IgE or ovalbumin; 60 min at 37° C.; read-out: In Vitro Inhibition of Histamine Release IC50 (μM) Procedure B
# Method: B. Procedure for Determining Inhibition of Histamine Release from Rat Peritoneal Mast Cells
# Harvest of Peritoneal Mast Cells: After the rats are sacrificed with ether, 20 ml of Minimum Essential Medium (MEM) containing 20 units/ml heparin is injected into the peritoneum. The abdomen is massaged for one minute and the lavage fluid collected. The peritoneal cells are centrifuged at 1800 rpm for 8 minutes in cold. After two washes with Tris A buffer, the cells are resuspended in Tris ACM buffer at 2-4×10^6 cells/ml.
# Reaction mixture: The reaction is carried out in 12×75 mm plastic tubes at a total volume of 1.25 ml. The reaction mixture includes 0.5 ml (10-1000 μg) sheep anti-rat IgE or ovalbumin, 0.2 ml of the test compound in water at concentrations ranging from 10-1000 μM, 0.5 ml phosphatidylserine solution (20-60 μg to each tube), and 0.5 ml of cell suspension.
# The concentration which causes a 50% inhibition (IC50) of histamine release is computed as in Part A.
# [4] = tested on: guinea pig basophils; assay: Inhibition of histamine release from guinea pig basophils, Procedure C; format: cell-based; conditions: Cavia porcellus, 1 h; from guinea pig basophils (ovalbumin-sensitized); 60 min at 37° C.; > = no response detected at highest dose indicated; read-out: In Vitro Inhibition of Histamine Release IC50 (μM) Procedure C
# Method: C. Procedure for Determining Inhibition of Histamine Release from Guinea Pig Basophils
# 1. In Vivo Sensitization: Male Hartley guinea pigs (200-300 gm) are immunized on day 0 with two 0.05 ml intradermal injections of 200 μg ovalbumin. Sensitized basophils are available between days 13-25 post-sensitization. This mode of sensitization favors IgE response.
# 2. Separation of Leukocytes: The method of Lett-Brown et al., Int. Arch. Allergy, Appl. Immun. 64, 241 (1981) is used. Animals are anesthetized with ether and are bled via cardiac puncture, with plastic syringes containing sufficient EDTA to provide a final concentration of 10 mM.
# One part of 3% gelatin in saline at 37° C. is mixed with 2 parts of blood in a 16×150 mm tube. The cells are allowed to sediment at a 30° angle for 45 minutes in a 37° C. water bath. The leukocyte-rich plasma is collected and centrifuged at 150×g for 30 minutes at room temperature. The pelleted cells are washed in Hepes-buffered saline (HG) containing 4 mM EDTA and resuspended in Hepes-buffered saline containing […] and Ca^++ (HGCM) at 4-5×10^6 cells/ml.
# 3. Reaction Mixture: The reaction is carried out in 12×75 mm plastic tubes and a total volume of 1.2 ml which includes 0.5 ml of antigen, 0.2 ml of drug solution at concentrations ranging from 10-1000 μM and 0.5 ml of prewashed cell suspension. The reaction mixture is incubated in a 37° C. shaking water bath for 60 minutes. Upon completion of the reaction, the tubes are centrifuged and the supernatants collected. The protein is removed from the supernatants by precipitation with 0.2 ml of 8% perchloric acid.
# 4. Histamine Assay: Histamine release is measured by the automated fluorometric method of Siraganian, supra. The concentration which causes a 50 percent inhibition of histamine release is computed as in Part A.
# [5] = from human basophils, rabbit anti-human IgE as antigen, 60 min at 37° C., > = no response detected at highest dose indicated
Compound,"IC50 [1, 5] [µM]",further results
"SCCCN1CCN(Cc2ccccc2)CC1 [Example 1, 3-(4-Benzylpiperazin-1-yl)propanethiol dihydrochloride]",,IC50 ([1]; Homo sapiens): 140 µM
"O=C(Nc1ccccc1)SCCCN1CCN(Cc2ccccc2)CC1 [Example 2, N-Phenyl-S-[3-(4-benzylpiperazin-1-yl)propyl]thiocarbamate dihydrochloride monohydrate]",310,
"SCCCN1CCN(Cc2ccc(Cl)cc2)CC1 [Example 3, 3-[4-(4-Chlorobenzyl)piperazin-1-yl]propanethiol dihydrochloride]",,IC50 ([1]; Homo sapiens): 4 µM
"CNC(=O)SCCCN1CCN(Cc2ccc(Cl)cc2)CC1 [Example 4, N-Methyl-S-{3-[4-(4-chlorobenzyl)piperazin-1-yl]propyl}thiocarbamate dihydrochloride]",,"In Vitro Inhibition of Histamine Release IC50 (μM) Procedure A [1, 5]: Int.; IC50 [2]: 0.19 µM"
"CC(C)NC(=O)SCCCN1CCN(Cc2ccc(Cl)cc2)CC1 [Example 5, N-Isopropyl-S-{3-[4-(4-chlorobenzyl)piperazin-1-yl]propyl}thiocarbamate dihydrochloride]",,"In Vitro Inhibition of Histamine Release IC50 (μM) Procedure A [1, 5]: Int.; IC50 [2]: 0.21 µM and 0.3 µM"
"O=C(Nc1ccccc1)SCCCN1CCN(Cc2ccc(Cl)cc2)CC1 [Example 7, N-Phenyl-S-{3-[4-(4-chlorobenzyl)piperazin-1-yl]propyl}thiocarbamate dihydrochloride]",2.6,IC50 [3]: 3 µM; IC50 [4]: 13 µM
"CCCCc1ccc(NC(=O)SCCCN2CCN(Cc3ccc(Cl)cc3)CC2)cc1 [Example 8, N-(4-n-Butylphenyl)-S-{3-[4-(4-chlorobenzyl)piperazin-1-yl]propyl}thiocarbamate dihydrochloride]",760,
"O=C(Nc1ccc(F)cc1)SCCCN1CCN(Cc2ccc(Cl)cc2)CC1 [Example 9, N-(4-Fluorophenyl)-S-{3-[4-(4-chlorobenzyl)piperazin-1-yl]propyl}thiocarbamate dihydrochloride]",11,IC50 [2]: 0.12 µM
"O=C(Nc1ccc(Cl)cc1)SCCCN1CCN(Cc2ccc(Cl)cc2)CC1 [Example 10, N-(4-Chlorophenyl)-S-{3-[4-(4-chlorobenzyl)piperazin-1-yl]propyl}thiocarbamate dihydrochloride monohydrate]",47,
"O=C(Nc1ccc(Cl)c(Cl)c1)SCCCN1CCN(Cc2ccc(Cl)cc2)CC1 [Example 11, N-(3,4-Dichlorophenyl)-S-{3-[4-(4-chlorobenzyl)piperazin-1-yl]propyl}thiocarbamate dihydrochloride]",> 1000,
"COc1ccccc1NC(=O)SCCCN1CCN(Cc2ccc(Cl)cc2)CC1 [Example 12, N-(2-Methoxyphenyl)-S-{3-[4-(4-chlorobenzyl)piperazin-1-yl]propyl}thiocarbamate dihydrochloride sesquihydrate]",> 300,
"COc1cccc(NC(=O)SCCCN2CCN(Cc3ccc(Cl)cc3)CC2)c1 [Example 13, N-(3-Methoxyphenyl)-S-{3-[4-(4-chlorobenzyl)piperazin-1-yl]propyl}thiocarbamate dihydrochloride]",140,
"COc1ccc(NC(=O)SCCCN2CCN(Cc3ccc(Cl)cc3)CC2)cc1 [Example 14, N-(4-Methoxyphenyl)-S-{3-[4-(4-chlorobenzyl)piperazin-1-yl]propyl}thiocarbamate dihydrochloride monohydrate]",,IC50 [2]: 0.12 µM
"Cc1ccc(CN2CCN(CCCS)CC2)cc1 [Example 17, 3-[4-(4-Methylbenzyl)piperazin-1-yl]propanethiol dihydrochloride]",,IC50 ([1]; Homo sapiens): 24 µM
"Cc1ccc(CN2CCN(CCCSC(=O)Nc3ccccc3)CC2)cc1 [Example 18, N-Phenyl-S-{3-[4-(4-methylbenzyl)piperazin-1-yl]propyl}thiocarbamate dihydrochloride sesquihydrate]",> 1000,
"CC1CN(Cc2ccc(Cl)cc2)C(C)CN1CCCSC(=O)Nc1ccccc1 (stereo not drawn) [Example 20, N-Phenyl-S-{3-[4-(4-chlorobenzyl)-2,5-dimethylpiperazin-1-yl]propyl}thiocarbamate dihydrochloride]",> 1000,
"CC(c1ccccc1)N1CCN(CCCSC(=O)Nc2ccccc2)CC1 (stereo not drawn) [Example 22, N-Phenyl-S-{3-[4-(1-phenylethyl)piperazin-1-yl]propyl}thiocarbamate dihydrochloride dihydrate]",67,
"O=C(Nc1ccccc1)SCCCN1CCN(CCc2ccccc2)CC1 [Example 24, N-Phenyl-S-[3-(4-phenethylpiperazin-1-yl)propyl]thiocarbamate dihydrochloride monohydrate]",> 1000,
"SCCCN1CCN(CCc2ccc(Cl)cc2)CC1 [Example 25, 3-[4-(4-Chlorophenethyl)piperazin-1-yl]propanethiol dihydrochloride]",5,IC50 [3]: 4 µM; IC50 [4]: 5 µM
"O=C(Nc1ccccc1)SCCCN1CCN(CCc2ccc(Cl)cc2)CC1 [Example 26, N-Phenyl-S-{3-[4-(4-chlorophenethyl)piperazin-1-yl]propyl}thiocarbamate dihydrochloride monohydrate]",25,IC50 [2]: 0.06 µM
"CCCCc1ccc(NC(=O)SCCCN2CCN(CCc3ccc(Cl)cc3)CC2)cc1 [Example 27, N-(4-n-Butylphenyl)-S-{3-[4-(4-chlorophenethyl)piperazin-1-yl]propyl}thiocarbamate dihydrochloride]",30,
"COc1cc(NC(=O)SCCCN2CCN(CCc3ccc(Cl)cc3)CC2)cc(OC)c1OC [Example 29, N-(3,4,5-Trimethoxyphenyl)-S-{3-[4-(4-chlorophenethyl)piperazin-1-yl]propyl}thiocarbamate dihydrochloride]",9,IC50 [2]: 0.18 µM
"O=C(Nc1ccccc1)SCCCN1CCN(c2ccc(F)cc2)CC1 [Example 35, N-Phenyl-S-{3-[4-(4-fluorophenyl)piperazin-1-yl]propyl}thiocarbamate dihydrochloride]",> 1000,
"O=C(Nc1ccccc1)SCCN1CCN(Cc2ccc(Cl)cc2)CC1 [Example 37, N-phenyl-S-{2-[4-(4-chlorobenzyl)piperazin-1-yl]ethyl}thiocarbamate dihydrochloride]",3,
"COc1ccc(NC(=O)SCCCN2CCN(CCCc3ccc(Cl)cc3)CC2)cc1 [Example 39, N-(4-Methoxyphenyl)-S-{3-[4-[3-(4-chlorophenyl)propyl]piperazin-1-yl]propyl]thiocarbamate dihydrochloride hemihydrate]",13,
"CCCCCCNC(=O)SCCCN1CCN(Cc2ccc(Cl)cc2)CC1 [Example 40, N-(n-Hexyl)-S-{3-[4-(4-chlorobenzyl)piperazin-1-yl]propyl}thiocarbamate dihydrochloride]",71,
"CCCCCCNC(=O)SCCCN1CCN(CC=Cc2ccccc2)CC1 [Example 44, N-(n-Hexyl)-S-[3-(4-cinnamylpiperazin-1-yl)propyl]thiocarbamate dihydrochloride]",> 1000,
"SCCCN1CCCN(Cc2ccc(Cl)cc2)CC1 [Example 45, 3-[4-(4-Chlorobenzyl)homopiperazin-1-yl]propanethiol]",3,
"CCCCCCNC(=O)SCCCN1CCCN(Cc2ccc(Cl)cc2)CC1 [Example 46, N-(n-Hexyl)-S-{3-[4-(4-chlorobenzyl)homopiperazin-1-yl]propyl}thiocarbamatedihydrochloride]",12,
"CC(C)(C)NC(=O)SCCCN1CCN(Cc2ccc(Cl)cc2)CC1 [Example 47, N-(t-Butyl)-S-{3-[4-(4-chlorobenzyl)piperazin-1-yl]propyl}thiocarbamate dihydrochloride sesquihydrate]",58,
